These results are taken from ChEMBL document CHEMBL4376882, “Photodynamic Therapy for ras-Driven Cancers: Targeting G-Quadruplex RNA Structures with Bifunctional Alkyl-Modified Porphyrins” (J Med Chem, 2020).

SMILES strings stand for the structures. Active and inactive are the calls of the source. The calls are words filed in the database; no cut-off is given here.

The test system of data set [1] is RNA. Nature of the data set: Binding affinity to total RNA in human PANC1 cells assessed as increase in amount of HPRT mRNA in recovered RNA from biotin-streptavidin pulled down at 0.2 to 0.6 uM at pH 7.4 and 4 degree C using biotinylated compound by qRT-PCR analysis. The class given is cell-based. A general note: Real-time PCR tracks product formation cycle by cycle.

Data set [2] relates to RNA. Nature of the data set: Binding affinity to total RNA in human PANC1 cells assessed as increase in amount of KRAS mRNA in recovered RNA from biotin-streptavidin pulled down at 0.2 to 0.6 uM at pH 7.4 and 4 degree C using biotinylated compound by qRT-PCR analysis relative to control. It is filed as cell-based.
The test system of data set [3] is DNA. Nature of the data set: Binding affinity to DNA (unknown origin) strands containing 95 and 89 nucleotides in ratio of 1:2 assessed as presence of ssDNA when G4 motif of 95 nucleotides interact with biotinylated compound at > 0.4 uM at pH 7.4 after 1 hr by biotin-streptavidin pull-down assay. It is filed as nucleic-acid assay.
Data set [4] relates to RNA. Kind of data set: Binding affinity to total RNA in human PANC1 cells assessed as increase in amount of beta2-microglobulin mRNA in recovered RNA from biotin-streptavidin pulled down at 0.2 to 0.6 uM at pH 7.4 and 4 degree C using biotinylated compound by qRT-PCR analysis. The class given is cell-based.
For data set [5], the system named is RNA. Kind of data set: Binding affinity to total RNA in human PANC1 cells assessed as increase in amount of NRAS mRNA in recovered RNA from biotin-streptavidin pulled down at 0.2 to 0.6 uM at pH 7.4 and 4 degree C using biotinylated compound by qRT-PCR analysis relative to control. The class given is cell-based.
Data set [6] has as its system DNA. Kind of data set: Binding affinity to DNA (unknown origin) strands containing 95 and 89 nucleotides in ratio of 1:2 assessed as interaction between G4 motif of 95 nucleotides and biotinylated compound at 0.2 to 0.4 uM at pH 7.4 after 1 hr by biotin-streptavidin pull-down assay. It is filed as nucleic-acid assay.
For data set [7], the system named is PANC-1. Nature of the data set: Cytotoxicity against human PANC1 cells assessed as reduction in metabolic activity at 20 nM after 24 to 72 hrs in dark followed by photoirradiation in presence of NADH and NAC by resazurin assay. The class given is functional, cell-based.
In another data set the test system is HEK293. Nature of the data set: Cytotoxicity against human HEK293 cells assessed as reduction in metabolic activity after 24 to 72 hrs in dark followed by photoirradiation in presence of NADH by resazurin assay. It is filed as ADME, cell-based. In general terms: Alamar Blue is a resazurin reagent that responds to reducing activity.
For data set [8], the system named is PANC-1. Kind of data set: Cytotoxicity against human PANC1 cells assessed as reduction in metabolic activity after 48 hrs in dark followed by photoirradiation in presence of NADH by resazurin assay. It is filed as functional, cell-based. The following applies: PANC-1, light or radiation study.
The next data set deals with MIA PaCa-2. Kind of data set: Cytotoxicity against human MIAPaCa2 cells harboring G12C point mutation assessed as reduction in metabolic activity after 48 hrs in dark followed by photoirradiation in presence of NADH by resazurin assay. It is filed as functional, cell-based.
The test system of data set [9] is PANC-1. Nature of the data set: Cytotoxicity against human PANC1 cells assessed as reduction in metabolic activity at 20 nM after 24 to 72 hrs in dark followed by photoirradiation in presence of NADH by resazurin assay. It is filed as functional, cell-based.
Data set [10] is described as follows: Binding affinity to NRAS RNA g-quadruplex (unknown origin) at 40 degree C by SPR analysis. The class given is nucleic-acid assay. In general terms: In SPR one partner is held on a chip, and binding of the other changes the refractive index at the surface.
Data set [11] addresses Quadruplex DNA. Nature of the data set: Binding affinity to human KRAS utr-z RNA g-quadruplex at 40 degree C by SPR analysis. It is filed as nucleic-acid assay.
In data set [12] the test system is Quadruplex DNA. Kind of data set: Binding affinity to human KRAS utr-z RNA g-quadruplex assessed as compound-RNA complex stoichiometry ratio of 4:1 by Job's plot analysis. The class given is nucleic-acid assay.
Data set [13] deals with Quadruplex DNA. Nature of the data set: Binding affinity to human KRAS utr-z RNA g-quadruplex assessed as compound-RNA complex stoichiometry ratio of 1:1 by Job's plot analysis. The class given is nucleic-acid assay.
Data set [14] in a line: Binding affinity to 20-mer stem-loop RNA (unknown origin) assessed as compound-RNA complex stoichiometry ratio of 2:1 by Job's plot analysis.
Data set [15] addresses Quadruplex DNA. Nature of the data set: Binding affinity to human KRAS utr-z RNA g-quadruplex by fluorescence spectroscopy. The class given is nucleic-acid assay.
For data set [16], the target named is Quadruplex DNA. Nature of the data set: Binding affinity to human KRAS utr-c RNA g-quadruplex by fluorescence spectroscopy. The class given is nucleic-acid assay.
Data set [17] in a line: Drug uptake in human PANC1 cells in presence of dynamin-inhibitor dynasore. The following applies: panc-1. The class given is ADME, cell-based.
Data set [18] can be described thus: Drug uptake in human PANC1 cells at 5 uM after 2 hrs by FACS analysis. It is filed as ADME, cell-based. The following applies: panc-1, 2 h.
A short description of data set [19]: Drug uptake in human PANC1 cells at 5 uM after 16 hrs by FACS analysis. It is filed as ADME, cell-based. The note with it: panc-1, 16 h.
The target of data set [20] is Quadruplex DNA. Nature of the data set: Binding affinity to NRAS RNA g-quadruplex (unknown origin) by fluorescence spectroscopy. The class given is nucleic-acid assay.
Data set [21] deals with Quadruplex DNA. Kind of data set: Binding affinity to human KRAS utr-1 RNA g-quadruplex by fluorescence spectroscopy. It is filed as nucleic-acid assay.
For data set [22], the system named is PANC-1. Kind of data set: Antitumor activity against human PANC1 cells xenografted in SCID mouse assessed as reduction in tumor growth at 30 mg/kg administered intratumorally measured after 14 days by micrometer caliper method. It is filed as functional, organism-based.
Data set [23] has as its system PANC-1. Kind of data set: Photodynamic antitumor activity against human PANC1 cells xenografted in SCID mouse assessed as reduction in tumor growth at 30 mg/kg administered intratumorally after 2 hrs photoirradiated by diode laser at 193 J/cm2 measured after 14 days by micrometer caliper method. It is filed as functional, organism-based.

By EC50 is commonly meant the midpoint of the concentration-response curve. For orientation: Kd means the constant that tells how readily two partners part at equilibrium. Low readings indicate higher affinity, high ones lower affinity.

Turning to `C[n+]1ccc(-c2c3nc(c(-c4cc[n+](C)cc4)c4ccc([nH]4)c(-c4cc[n+](CCCCCCCCCCCCNC(=O)CCCC[C@@H]5SC[C@@H]6NC(=O)N[C@@H]65)cc4)c4nc(c(-c5cc[n+](C)cc5)c5ccc2[nH]5)C=C4)C=C3)cc1`, the result in the data set with RNA [1] and with RNA [4] was inactive. Moreover, the fold change (FC) in the data set on RNA [2] is 25. The outcome in the data set on DNA [3], in the data set with RNA [5] and in the data set with DNA [6] was Active.

Take `CCCCCCCCCCCC[n+]1ccc(-c2c3nc(c(-c4cc[n+](C)cc4)c4ccc([nH]4)c(-c4cc[n+](C)cc4)c4nc(c(-c5cc[n+](C)cc5)c5ccc2[nH]5)C=C4)C=C3)cc1.[I-].[I-].[I-].[I-]`: the outcome with PANC-1 [7] was inactive. Moreover, the Activity entry in the data set on HEK293 is recorded as “Non-Toxic”. Moreover, the EC50 in the data set with PANC-1 [8] was determined as 13.1 nM. The outcome with MIA PaCa-2 and in the data set with PANC-1 [9] was Active. In addition, the Kd in [10] fell in the range of 56 to 98 nM; at Quadruplex DNA [11] it was 82 to 202 nM.

Turning to `CCCCCCCCCCCCCCCC[n+]1ccc(-c2c3nc(c(-c4cc[n+](C)cc4)c4ccc([nH]4)c(-c4cc[n+](C)cc4)c4nc(c(-c5cc[n+](C)cc5)c5ccc2[nH]5)C=C4)C=C3)cc1.[I-].[I-].[I-].[I-]`, in the data set with PANC-1 [7], the outcome was inactive. Moreover, the Activity result in the data set with HEK293 is on record as “Non-Toxic”. Moreover, the EC50 with PANC-1 [8] is 19.2 nM. Besides, the outcome in the data set on MIA PaCa-2 and in the data set on PANC-1 [9] was Active. Further, the equilibrium dissociation constant (Kd) fell in the range of 56 to 98 nM in [10] and 82 to 202 nM on Quadruplex DNA [11].

On to `C[n+]1ccc(-c2c3nc(c(-c4cc[n+](C)cc4)c4ccc([nH]4)c(-c4cc[n+](C)cc4)c4ccc([nH]4)c(-c4cc[n+](C)cc4)c4nc2C=C4)C=C3)cc1`, for which the result (in the data set on Quadruplex DNA [12]; in the data set with Quadruplex DNA [13]; in data set [14]) was Active.

In the case of `C[n+]1ccc(-c2c3nc(c(-c4cc[n+](C)cc4)c4ccc([nH]4)c(-c4cc[n+](C)cc4)c4nc(c(-c5cc[n+](C)cc5)c5ccc2[nH]5)C=C4)C=C3)cc1.[Cl-].[Cl-].[Cl-].[Cl-]` [TMPYP4 CHLORIDE], the Kd on Quadruplex DNA [15] is 681 nM; at Quadruplex DNA [16], 1020 nM; at Quadruplex DNA [20], 301 nM; on Quadruplex DNA [21], 454 nM. Also, the Drug uptake entry in [17] is recorded as “Active”; in [18], “Not Active”; in data set [19], “Active”.

Consider `C[n+]1ccccc1-c1c2nc(c(-c3cccc[n+]3C)c3ccc([nH]3)c(-c3cccc[n+]3C)c3ccc([nH]3)c(-c3cccc[n+]3C)c3nc1C=C3)C=C2.[Cl-].[Cl-].[Cl-].[Cl-]`, for which the result in the data set with PANC-1 [22] and in the data set on PANC-1 [23] was inactive. Also, the Drug uptake entry in data set [18] was “Not Active”; in data set [19], “Active”.
